From patent US20230295201A1 (Gilead Sciences, Inc., priority 2020, published 2023) come the findings set out here.

Each structure is given as a SMILES string.

What all share (type): cell-based
In one experiment the test system is HRV16. As to the kind of experiment: HRV16 HELA EC50 (cytopathic effect in H1-HeLa cells). The following applies: 96 h, H1-HeLa cells, 33° C., read-out: HRV16 HELA EC50. A digest of the protocol: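 Read-out is luminescent cell viability (CellTiter-Glo) after 96 h of infection at 33 °C, scaled between uninfected and infected-untreated wells. Before infection with titrated virus, compounds went onto H1-HeLa cells as triplicate 3-fold dilution series.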
Background: Cytopathic effects are the visible damage that an infection or toxin causes in cultured cells.

The test system of another experiment is RSV strain A2. As to the kind of experiment: RSV HEp-2 EC50 (infectious cytopathic cell protection assay). The note with it: human respiratory syncytial virus, HEp-2, 96 h, HEp-2 cells, RSV A2, 4 days; read-out: RSV HEp-2 EC50. A digest of the protocol: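 Percent inhibition of RSV-induced cytopathic effect came from remaining cell viability (CellTiter-Glo luminescence) after 4 days at 37° C. Compounds in 3-fold serial dilutions were exposed to an infectious mix of titered A2 virus and HEp-2 cells at 50,000/ml, with 0% and 100% inhibition control standards.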

A further experiment relates to DENV2 replicon. Briefly: DENV-2 Huh-7 Rep EC50 (replicon luminescence). The following applies: Dengue virus, DENV2, Huh-7, 48 h, Huh-7 replicon cells, 48 hours; read-out: DENV-2 Huh-7 Rep EC50. A digest of the protocol:
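EC50 derived from luminescence dose-response, normalised to DMSO-only 0% inhibition wells, after 1.5 h with EnduRen substrate. Compounds were first exposed for 48 h at 37° C to DENV2 replicon Huh-7 cells (5,000/well).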

The subject of the next experiment is RSV A2. As to the kind of experiment: RSV NHBE EC50 (RSV A2 antiviral assay in normal human bronchial epithelial cells). The following applies: human respiratory syncytial virus, NHBE, 96 h, NHBE cells, RSV A2, 4 days; read-out: RSV NHBE EC50.

`CCCCCCCCCCCCOC(=O)[C@H](C)NP(=O)(OC[C@@]1(C#N)O[C@@H](c2ccc3c(N)ncnn23)[C@H](O)[C@@H]1O)Oc1ccccc1` (stereo partly drawn) [Example 191, dodecyl ((((2R,3S,4R,5S)-5-(4-aminopyrrolo[2,1-f][1,2,4]triazin-7-yl)-2-cyano-3,4-dihydroxytetrahydrofuran-2-yl)methoxy)(phenoxy)phosphoryl)-L-alaninate]: the EC50 in the experiment on HRV16 is 3400 nM; in the experiment with RSV strain A2, 2380 nM; with DENV2 replicon, 61300 nM; in the experiment with RSV A2, 35 nM.

Consider `CCCCCCOC(=O)[C@H](C)NP(=O)(OC[C@@]1(C#N)O[C@@H](c2ccc3c(N)ncnn23)[C@H](O)[C@@H]1O)Oc1ccccc1` (stereo partly drawn) [Example 192, hexyl ((((2R,3S,4R,5S)-5-(4-aminopyrrolo[2,1-f][1,2,4]triazin-7-yl)-2-cyano-3,4-dihydroxytetrahydrofuran-2-yl)methoxy)(phenoxy)phosphoryl)-L-alaninate], for which the EC50 turned out to be 342 nM with HRV16, 194 nM in the experiment with RSV strain A2, 15900 nM in the experiment on DENV2 replicon and 21 nM in the experiment on RSV A2.

Take `C[C@H](NP(=O)(OC[C@@]1(C#N)O[C@@H](c2ccc3c(N)ncnn23)[C@H](O)[C@@H]1O)Oc1cccc2ccccc12)C(=O)OC1CCCCC1` (stereo partly drawn) [Example 203, cyclohexyl ((((2R,3S,4R,5S)-5-(4-aminopyrrolo[2,1-f][1,2,4]triazin-7-yl)-2-cyano-3,4-dihydroxytetrahydrofuran-2-yl)methoxy)(naphthalen-1-yloxy)phosphoryl)-L-alaninate]: the half-maximal effective concentration (EC50) with HRV16 was determined as 72 nM; with RSV strain A2, 31 nM; in the experiment on DENV2 replicon it was 4460 nM; in the experiment with RSV A2 it was 18 nM.

The EC50 is the concentration giving half of the maximal effect.
